In patent publication US20050227306A1, “Fluorescence polarization assay to detect protease cleavage” (priority 2003, published 2005):

Legend:
[1] = molecular target: T1, TEV protease (Tobacco etch virus, UniProt P04517); experiment: Effect of additives on TEV protease cleavage measured by fluorescence polarization; assay type: biochemical; conditions: At3g16990 in pVP15 substrate, 0.5 μM TEV protease, pH 8.0, ca. 22° C.; increasing additive concentrations
T1 construct: TEV Protease, 0.5 μM
From the text: The following series of Examples exemplify the efficacy of using the disclosed invention in measuring protease cleavage in the presence of various potentially interfering compounds. Briefly, each reaction comprised mixing three components: 1) a mixture of labeled and unlabeled protease substrates; 2) TEV protease; and 3) the potentially interfering additive. The results are presented graphically in FIGS. 3-14 The reaction buffer contained the following components (final concentrations noted):
Each stated additive as shown in FIGS. 3-14 was added at the stated concentrations. The TEV protease was added to each reaction last, just prior to placing the reactions into the photometer. The reactions were followed in real-time, at ambient temperature (ca. 22° C.). Fluorescence anisotropy was measured at the time points noted in FIGS. 3-14.
The following figures present the fluorescence data for each of the stated additives: FIG. 3: urea (M), FIG. 4: sucrose concentration (M), FIG. 5: sodium dodecylsulfate (SDS) (wt/vol %), FIG. 6: sodium chloride (NaCl) (M), FIG. 7: guanidium hydrochloride (M), FIG. 8: glycine concentration (wt/vol %), FIG. 9: glycerol concentration (vol/vol %), FIG. 10: ethanol concentration (vol/vol %), FIG. 11: ethylene glycol concentration (vol/vol %), FIG. 12: dimethylsulfoxide (DMSO) (vol/vol %), FIG. 13: calcium chloride (CaCl2) (M), and FIG. 14: arginine (wt/vol %).
Fluorescence anisotropy was measured using a Tecan 384 Ultra plate spectrofluorimeter. Excitation was at 485 nm (25 nm bandpass) and emission was measured at 525 nm (20 nm bandpass). Anisotropy measurements were made at 2 to 5 min intervals for 5 hours. The observed anisotropy is the sum of the anisotropy of the individual fluorescent components, or robs=Σfiri, where robs, is the observed anisotropy, fi is the fractional fluorescence intensity of component i, and ri is the anisotropy of component i. See J. Lakowicz, “Principles of fluorescence spectroscopy,” Kluwer Academic/Plenum Publishers, New York, 1999. For a two-state system with the fluorophore attached to either the intact fusion protein or to the small peptide produced by proteolysis, the fractional extent of reaction is given by ξ=(rf−robs)/(rf−rc), where rf is the fluorescence anisotropy of the intact fusion protein and rc is the fluorescence anisotropy of small peptide. This treatment assumes that there is no difference in the fluorescence intensity of the fluorophore attached to either the fusion protein or the small peptide, and this is justified by the observation that there was no significant change in total fluorescence intensity as the reactions proceeded.

[2] = tested on: substrate 23-F (His6-tetraCys-X-MBP); experiment: Fluorescence anisotropy proteolysis assay with substrate 23-F; assay type: biochemical, E. coli; conditions: initial rate by fluorescence anisotropy, normalized to the rate of the protease with its preferred cognate substrate
From the text: (§1) All protease substrates were expressed in E. coli Rosetta pLacI Rare to provide compensation for rare codons (see Kirienko et al. (2004) Biochemistry (Mosc) 69:527-535; available commercially from Novagen, a wholly-owned subsidiary of EMD Biosciences, Inc., Madison, Wis.). The expression was done in 2-L PET bottles (Millard et al. (2003) Protein Expr. Purif. 29:311-320). The protein purification followed typical IMAC purification procedures (see Sambrook & Russell, supra) including elution in an imidazole gradient from 0-350 mM. After SDS-PAGE analysis, appropriate fractions were pooled and desalted into 20 mM phosphate, pH 7.5, containing 100 mM NaCl and 0.3 mM TCEP. […]
(§2) Protease assays were conducted using a combination of 20 μM unlabeled and 40 nM labeled protease substrates unless noted otherwise. […] This decreased the amount of time between mixing and measurement to less than three minutes and allowed the fluorescence anisotropy measured at the first time point to closely approximate the anisotropy of the intact fusion protein. […]
(§3) Fluorescence anisotropy was measured using a Tecan 384 Ultra plate spectrofluorimeter. Excitation was at 485 nm (25 nm bandpass) and emission was measured at 525 nm (20 nm bandpass). […] See J. Lakowicz, “Principles of fluorescence spectroscopy,” Kluwer Academic/Plenum Publishers, New York, 1999. […]

[3] = tested on: substrate 21-F (His6-tetraCys-X-MBP); experiment: Fluorescence anisotropy proteolysis assay with substrate 21-F; assay type: biochemical, E. coli; conditions: initial rate by fluorescence anisotropy, normalized to the rate of the protease with its preferred cognate substrate
From the text: as §1, §2, §3

[4] = tested on: substrate 26-F (His6-tetraCys-X-MBP); experiment: Fluorescence anisotropy proteolysis assay with substrate 26-F; assay type: biochemical, E. coli; conditions: initial rate by fluorescence anisotropy, normalized to the rate of the protease with its preferred cognate substrate
From the text: as §1, §2, §3

[5] = tested on: substrate 25-F (His6-tetraCys-X-MBP); experiment: Fluorescence anisotropy proteolysis assay with substrate 25-F; assay type: biochemical, E. coli; conditions: for Relative rate of reaction, substrate 25F: initial rate by fluorescence anisotropy, normalized to the rate of the protease with its preferred cognate substrate; for Specific reaction rate: substrate 25-F
From the text: (§4) All protease substrates were expressed in E. coli Rosetta pLacI Rare to provide compensation for rare codons (see Kirienko et al. (2004) Biochemistry (Mosc) 69:527-535; available commercially from Novagen, a wholly-owned subsidiary of EMD Biosciences, Inc., Madison, Wis.). The expression was done in 2-L PET bottles (Millard et al. (2003) Protein Expr. Purif. 29:311-320). The protein purification followed typical IMAC purification procedures (see Sambrook & Russell, supra) including elution in an imidazole gradient from 0-350 mM. After SDS-PAGE analysis, appropriate fractions were pooled and desalted into 20 mM phosphate, pH 7.5, containing 100 mM NaCl and 0.3 mM TCEP. Proteins were concentrated to a final concentration of 300-600 μM using centrifugal concentrators. Glycerol (50% v/v) was added to all protease substrates except 26-F and frozen at −20° C. The Arabidopsis targets At3g03410 (expressed from pVP14) and At3g16990 (expressed from pVP15) were flash frozen as drops in liquid nitrogen and stored at −80° C.
(§5) A 20% molar excess of the tetraCys reagent was incubated overnight (˜12 h) with protein (10-100 μg) at room temperature in 20 mM phosphate, pH 7.5, containing 100 mM NaCl, 0.3 mM TCEP, and 1 mM β-mercaptoethanol. After the labeling reaction, unincorporated fluorophore was removed by two successive cycles of 10-fold dilution and concentration using centrifugal concentrators.
as §2, with “otherwise. TEV protease reactions were conducted in 20 mM Tris-HCl, pH 8.0, containing 100 mM NaCl, 0.3 mM TCEP, 1 mM β-mercaptoethanol, and 5 mM EDTA.” for “otherwise.”
Fluorescence anisotropy was measured using a Tecan 384 Ultra plate spectrofluorimeter. Excitation was at 485 nm (25 nm bandpass) and emission was measured at 525 nm (20 nm bandpass). […] The observed anisotropy is the sum of the anisotropy of the individual fluorescent components, or robs=Σfiri, where robs, is the observed anisotropy, fi is the fractional fluorescence intensity of component i, and ri is the anisotropy of component i. See J. Lakowicz, “Principles of fluorescence spectroscopy,” Kluwer Academic/Plenum Publishers, New York, 1999. For a two-state system with the fluorophore attached to either the intact fusion protein or to the small peptide produced by proteolysis, the fractional extent of reaction is given by ξ=(rf−robs)/(rf−rc), where rf is the fluorescence anisotropy of the intact fusion protein and rc is the fluorescence anisotropy of small peptide. […]

[6] = tested on: substrate 22-F (His6-tetraCys-X-MBP); experiment: Fluorescence anisotropy proteolysis assay with substrate 22-F; assay type: biochemical, E. coli; conditions: for Relative rate of reaction, substrate 22F: initial rate by fluorescence anisotropy, normalized to the rate of the protease with its preferred cognate substrate
From the text: as §4, §5
Protease assays were conducted using a combination of 20 μM unlabeled and 40 nM labeled protease substrates unless noted otherwise. TEV protease reactions were conducted in 20 mM Tris-HCl, pH 8.0, containing 100 mM NaCl, 0.3 mM TCEP, 1 mM β-mercaptoethanol, and 5 mM EDTA. Reactions with thrombin, enterokinase, and Factor Xa were performed in the buffer supplied by the manufacturer. Trypsin reactions were carried out in the buffer supplied for thrombin. Assays were carried out in black Cliniplate 384 well plates in a 40 μL reaction volume or in black Greiner 384 well plates using an 80 μL reaction volume. […] This decreased the amount of time between mixing and measurement to less than three minutes and allowed the fluorescence anisotropy measured at the first time point to closely approximate the anisotropy of the intact fusion protein. […]
Fluorescence anisotropy was measured using a Tecan 384 Ultra plate spectrofluorimeter. Excitation was at 485 nm (25 nm bandpass) and emission was measured at 525 nm (20 nm bandpass). […] The observed anisotropy is the sum of the anisotropy of the individual fluorescent components, or robs=Σfiri, where robs, is the observed anisotropy, fi is the fractional fluorescence intensity of component i, and ri is the anisotropy of component i. See J. Lakowicz, “Principles of fluorescence spectroscopy,” Kluwer Academic/Plenum Publishers, New York, 1999. For a two-state system with the fluorophore attached to either the intact fusion protein or to the small peptide produced by proteolysis, the fractional extent of reaction is given by ξ=(rf−robs)/(rf−rc), where rf is the fluorescence anisotropy of the intact fusion protein and rc is the fluorescence anisotropy of small peptide. This treatment assumes that there is no difference in the fluorescence intensity of the fluorophore attached to either the fusion protein or the small peptide, and this is justified by the observation that there was no significant change in total fluorescence intensity as the reactions proceeded. […]

[7] = tested on: substrate 24-F (His6-tetraCys-X-MBP); experiment: Fluorescence anisotropy proteolysis assay with substrate 24-F; assay type: biochemical, E. coli; conditions: initial rate by fluorescence anisotropy, normalized to the rate of the protease with its preferred cognate substrate
From the text: as §1, §2, §3

[8] = reactions with cognate His6-tetraCys-X-MBP substrates

T1 sequence (P04517 2038-2279): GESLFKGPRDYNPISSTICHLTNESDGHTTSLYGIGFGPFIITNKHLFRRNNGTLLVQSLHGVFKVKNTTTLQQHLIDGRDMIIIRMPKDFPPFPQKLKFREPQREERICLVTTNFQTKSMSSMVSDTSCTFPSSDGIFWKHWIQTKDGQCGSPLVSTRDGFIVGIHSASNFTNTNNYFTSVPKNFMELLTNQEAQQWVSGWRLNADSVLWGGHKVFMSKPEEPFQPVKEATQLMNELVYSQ

[Cl-].[Na+] [NaCl, sodium chloride]
Effect of additive on fractional completion of the TEV protease cleavage reaction [1]: little or no effect

C[S+](C)[O-] [DMSO, dimethylsulfoxide]
Effect of additive on fractional completion of the TEV protease cleavage reaction [1]: little or no effect

[Ca+2].[Cl-].[Cl-] [CaCl2, calcium chloride]
Effect of additive on fractional completion of the TEV protease cleavage reaction [1]: little or no effect

Thrombin
Relative rate of reaction, substrate 23F [2]: −0.02
Relative rate of reaction, substrate 21F [3]: 0.0
Relative rate of reaction, substrate 26F [4]: 0.0
Relative rate of reaction, substrate 25F [5]: 1
Specific reaction rate ([5]; slope of initial rate versus protease concentration, errors two standard deviations): 240±20 moles substrate proteolyzed per mole of protease per hour
Specific reaction rate ([5]; thrombin units adjusted for equivalence with enterokinase and Factor Xa unit definition): 0.20±0.02 nmole substrate proteolyzed per unit enzyme per hour
Relative rate of reaction, substrate 22F [6]: 0.4
Relative rate of reaction, substrate 24F [7]: 0.0

Trypsin: protease tested on tetraCys-labeled His6-tetraCys-X-MBP substrates
Relative rate of reaction, substrate 23F [2]: 0.1
Relative rate of reaction, substrate 21F [3]: 0.3
Relative rate of reaction, substrate 25F [5]: 0.5
Relative rate of reaction, substrate 22F [6]: 1
Turnover number, fold greater than for TEV protease [6, 8]: 10 fold
Turnover number, fold greater than that observed for thrombin [6, 8]: 3 fold
Specific reaction rate ([6]; substrate 22-F, slope of initial rate versus protease concentration, errors two standard deviations): 760±60 moles substrate proteolyzed per mole of protease per hour
Relative rate of reaction, substrate 24F [7]: 0.4

NCC(=O)O [glycine]
Effect of additive on fractional completion of the TEV protease cleavage reaction [1]: little or no effect

Cl.N=C(N)N [guanidium hydrochloride]
Effect of additive on fractional completion of the TEV protease cleavage reaction [1]: considerable inhibition

CCO [ethanol]
Effect of additive on fractional completion of the TEV protease cleavage reaction [1]: considerable inhibition

NC(N)=O [urea]
Effect of additive on fractional completion of the TEV protease cleavage reaction [1]: considerable inhibition

N=C(N)NCCC[C@H](N)C(=O)O [arginine]
Effect of additive on fractional completion of the TEV protease cleavage reaction [1]: considerable inhibition

OCCO [ethylene glycol]
Effect of additive on fractional completion of the TEV protease cleavage reaction [1]: considerable inhibition

CCCCCCCCCCCCOS(=O)(=O)[O-].[Na+] [SDS, sodium dodecylsulfate]
Effect of additive on fractional completion of the TEV protease cleavage reaction [1]: considerable inhibition

OCC(O)CO [glycerol]
Effect of additive on fractional completion of the TEV protease cleavage reaction [1]: little or no effect

OC[C@H]1O[C@@](CO)(O[C@H]2O[C@H](CO)[C@@H](O)[C@H](O)[C@H]2O)[C@@H](O)[C@@H]1O [sucrose]
Effect of additive on fractional completion of the TEV protease cleavage reaction [1]: little or no effect
